# Test results reported in paper PMC8042727, “Apoptosis-like cell death upon kinetoplastid induction by compounds isolated from the brown algae Dictyota spiralis” (Parasites & Vectors, 2021).
# How the values were obtained:
# Assay type in all cases: cell-based
# [1] = system: Leishmania amazonensis promastigotes; experiment: Mitochondrial membrane potential (JC-1); conditions: L. amazonensis, IC90, 24 h, relative to negative control
# Method: Promastigotes of L. amazonensis (2 × 10^6 cells/ml) and epimastigotes (5 × 10^5cells/ml) of T. cruzi were incubated for 24 h in the presence of the compounds to be tested, at IC90 and 26 °C, following which the cells were centrifuged, resuspended and transferred to black bottom 96-well plate. A 10-μl aliquot of JC-1 reagent (JC-1 Mitochondrial Membrane Potential Assay Kit; Cayman Chemical, Ann Arbor, MI, USA) was added to each well and the plates were incubated for 30 min. The switch of fluorescence from red to green emitted by both forms of the dye (monomer and aggregate) was measured using the Enspire microplate reader (PerkinElmer) at excitation/emission wavelengths of 560/595 and 485/535 for red and green, respectively; the decrease of the ratio was calculated as the percentage relative to the negative control. Cells images were captured using the Evos cell imaging system (Thermo Fisher Scientific), which is a fully integrated digital inverted microscope, at a magnification of ×40 and ×100. Untreated cells are used as the negative control, and miltefosine and benznidazole were used as the positive control.
# Disruption of mitochondrial functions induced by the incubation of L. amazonensis and T. cruzi with compounds 1–3 was evaluated using the mitochondrial membrane potential as a measure. JC-1 dye was used in this assay. In the case of normal mitochondrial membrane potential, the reactive dye will form aggregates that emit red fluorescence; a collapsed potential induces the monomeric form with green fluorescence. This parameter is expressed as the absolute red/green ratio of fluorescence. We considered the values of the negative controls to be the normal values, and therefore the collapse of mitochondrial membrane potential is expressed as a percentage (see Fig. 4a). This parameter is involved in energy storage and is an important indicator of cell health and viability.
# [2] = system: Leishmania amazonensis amastigotes; experiment: Anti-amastigotes assay (intra-macrophagic stage, J774A.1); conditions: for Selectivity index: CC50 murine macrophages / IC50 amastigote; for IC50: J774.A1, Leishmania amazonensis, intracellular in J774A.1, read-out: IC50: amastigote
# Method: The three molecules 1-3 were tested against the intra-macrophagic stage of L. amazonensis as previously described. Briefly, in a 96-well, flat-bottom plate, macrophages of the J774A.1 cell line (American Type Culture Collection #TIB-67) were cultured at a density of 2 × 10^5 cells/ml in RPMI 1640 medium supplemented with 10% heat-inactivated FBS and incubated for 1 h at 37 °C in a 5% CO2 atmosphere to allow almost complete attachment of the cells. The macrophages were then infected with L. amazonensis promastigotes in the stationary phase (7-day-old culture) at a ratio of 1:10 (macrophage:parasite) at a concentration of 2 × 10^6 cells/ml and incubated at 37 °C in 5% CO2 for 24 h. Wells were washed with medium to remove external promastigotes. Thereafter, the infected macrophages were treated with the serially diluted concentrations of the pure compounds for 24 h, following which the medium was removed carefully and replaced by 30 μl of new medium containing 0.05% sodium dodecyl sulfate and the plate shaken for 30 s. Subsequently, 170 μl of Schneider’s medium was added to each well to give a final volume of 200 μl, and 20 μl of AlamarBlue® was added to the plate; the plate was then incubated at 26 °C for 72 h, following which the plates were analyzed using the same protocol as for the promastigotes assay.
# [3] = system: Leishmania amazonensis promastigotes; experiment: Plasma membrane permeability assay (SYTOX Green); conditions: L. amazonensis, IC90, up to 6 h, compared to Triton X-100 (100%)
# Method: This assay was performed to evaluate the cell’s membrane permeability. Following the manufacturer’s recommendations, promastigotes of L. amazonensis and epimastigotes of T. cruzi were incubated in phosphate saline buffer in the presence of 1 μM of SYTOX® Green nucleic acid stain (Life Technologies, Waltham, MA, USA) and the IC90 of the different test compounds to be tested. Variation in fluorescence was measured every 15 min for 6 h using the Enspire multimode plate reader at excitation/emission wavelengths of 485/520. The percentage of relative permeabilization was calculated in reference to complete permeabilization realized by adding Triton X-100 (Sigma-Aldrich). In addition, both L. amazonensis and T. cruzi cells were incubated for 24 h with compounds 1–3, miltefosine and benznidazole, and images were captured using the Evos cell imaging system.
# One of the detectable cellular events of a necrotic cell death is the rupture of the plasma membrane. This event can be detected by evaluating plasma membrane permeabilization. We performed the SYTOX Green dye assay to detect effect of compounds 1–3 on membrane permeability. This green-fluorescence dye has a high affinity for DNA. Triton X-100 was used as a positive control in light of its known effect to cause 100% membrane permeabilization. Values of fluorescence were measured each 15 min for 6 h.
# Leishmania amazonensis = experiment: Oxidative stress / ROS accumulation (CellROX Deep Red); conditions: L. amazonensis, IC90, 24 h
# Method: The reagent used for this assay was a fluorogenic probe to measure cellular oxidative stress upon oxidation by reactive oxygen species (ROS). To perform the test, cells were incubated with the compounds to be tested, at IC90 for 24 h. The cells were centrifuged and resuspended in a volume of 50 μl, following which CellROX™ Deep Red oxidative stress reagent (Thermo-Fisher Scientific) was added to 96-well plates at […]. The plates were then incubated for 30 min at 37 °C. After incubation, the results were analyzed by cell imaging using the Evos cell imaging system. Cells treated with different compounds were compared with untreated control cells and the positive control. Fluorescence intensity was also measured using the Enspire multimode plate reader at excitation/emission wavelengths of 640/665 nm. Accumulation ROS at the cellular level is a good indicator of oxidative stress and is precursor to a chain reaction leading damage at the cellular level to proteins, nucleic acids, lipids, membrane and organelles. These cellular alterations can lead to activation of the cell death process. As such, ROS play an important role in cell signaling and the apoptosis pathway. An intracellular excess of ROS can be detected by the cell-permeable CellROX™ Deep Red reagent, which is a fluorogenic ROS sensor.
# Trypanosoma cruzi = experiment: ATP level (CellTiter-Glo); conditions: T. cruzi, IC90, 24 h, relative to negative control
# Method: The CellTiter-Glo® luminescent cell viability assay (Promega, WI, USA) was used to quantify the adenosine triphosphate (ATP) concentration. Cells of the kinetoplastid strains (for both L. amazonensis [2 × 10^6 cells/ml] and T. cruzi [5 × 10^5cells/ml]) were incubated for 24 h with the compounds to be tested, at IC90 and 26 °C. After incubation, the cells were centrifuged and resuspended in 100 μl. To this volume, we added 100 μl of the reactive in white 96-well plates. After incubation, the luminescence signal was measured using the Enspire multimode plate reader. The decrease in ATP level was expressed as a percentage relative to the negative control. Miltefosine and benznidazole were tested as the positive control for L. amazonensis and T. cruzi, respectively.
IC50 [2] [nM],SMILES,decrease in mitochondrial potential [1] [%],Selectivity index [2],percentage of membrane permeabilization [3] [%],ROS accumulation (fluorescence vs negative control) (Leishmania amazonensis),decrease in ATP concentration (Trypanosoma cruzi) [%]
970 ± 130,"CC(C)=CCC[C@](C)(O)[C@@H]1CC[C@@H](C)[C@@H]2CC=C(C)[C@H]2[C@@H]1O [Compound 1, pachydictyol C]",34.0,37.76,< 20,more remarkable,> 70
2030 ± 220,"C=C1CC[C@@H]([C@@](C)(O)CCC=C(C)C)[C@@H](O)[C@@H]2C(C)=CC[C@@H]12 [Compound 2, dictyol E]",40.7,25.56,< 20,slight increase in fluorescence but the increase was not significant,> 95
3880 ± 170,"C=C(C)[C@H]1CC[C@]2(C)C[C@@H]3O[C@@]3(C)CC/C=C(\C)CC[C@@H]12 [Compound 3, 3,4-epoxy-7,18-dolabelladiene]",> 80,18.02,35,more remarkable,> 95
